Results published in patent US9738634B2, “Heterocyclic amide compound and herbicide” (SYNGENTA PARTICIPATIONS AG, priority 2013, dated 2017).

What was measured:
Assay type in all cases: in vivo
Conditions in all cases: treatment dosage 320 g/ha
barnyard grass [1] = experiment: Test Example 1: weedkilling efficacy, preemergent weed treatment in the submerged state; A: barnyard grass
Method in brief: (§1)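 Alluvial soil in Wagner pots flooded to 4 cm; barnyard grass, bulrush and oval-leafed pondweed seeds sown, then 2.5-leaf rice seedlings transplanted. Same day, emulsified compound diluted in water to set g/ha dosages and applied to water surface; greenhouse 25–30 °C, effect scored by criteria after 3 weeks.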

bulrush [2] = experiment: Test Example 1: weedkilling efficacy, preemergent weed treatment in the submerged state; B: bulrush
Method in brief: as §1

oval-leafed pondweed [3] = experiment: Test Example 1: weedkilling efficacy, preemergent weed treatment in the submerged state; C: oval-leafed pondweed
Method in brief: as §1

transplanted rice = experiment: Test Example 1: preemergent weed treatment in the submerged state, effect on crop; a: transplanted rice
Method in brief: as §1

barnyard grass [4] = experiment: Test Example 2: weedkilling efficacy, growth period weed treatment in the submerged state; A: barnyard grass
Method in brief: (§2)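 First, alluvial soil in pots is flooded to 4 cm and mixed seed is sown. Next, plants grow in a greenhouse at 25 to 30° C until the 1-2 leaf stage. Then diluted emulsion is applied onto the water surface at the given g/ha rate, and injury is assessed after 3 weeks.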

bulrush [5] = experiment: Test Example 2: weedkilling efficacy, growth period weed treatment in the submerged state; B: bulrush
Method in brief: as §2

oval-leafed pondweed [6] = experiment: Test Example 2: weedkilling efficacy, growth period weed treatment in the submerged state; C: oval-leafed pondweed
Method in brief: as §2

crabgrass [7] = experiment: Test Example 3: weedkilling efficacy through soil treatment; D: crabgrass
Method in brief: (§3)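 Crop and weed responses were judged three weeks after a uniform surface spray of the water-diluted emulsion at the given g/ha rate. Seeds sat beneath about 1.5 cm of sterilized diluvial soil, and boxes stood in a greenhouse at 25 to 30° C.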

green foxtail [8] = experiment: Test Example 3: weedkilling efficacy through soil treatment; E: green foxtail
Method in brief: as §3

barnyard grass [9] = experiment: Test Example 3: weedkilling efficacy through soil treatment; F: barnyard grass
Method in brief: as §3

wild oat [10] = experiment: Test Example 3: weedkilling efficacy through soil treatment; G: wild oat
Method in brief: as §3

black-grass [11] = experiment: Test Example 3: weedkilling efficacy through soil treatment; H: black-grass
Method in brief: as §3

Italian ryegrass [12] = experiment: Test Example 3: weedkilling efficacy through soil treatment; I: Italian ryegrass
Method in brief: as §3

common wind-grass [13] = experiment: Test Example 3: weedkilling efficacy through soil treatment; J: common wind-grass
Method in brief: as §3

Indian mallow [14] = experiment: Test Example 3: weedkilling efficacy through soil treatment; K: Indian mallow
Method in brief: as §3

redroot pigweed [15] = experiment: Test Example 3: weedkilling efficacy through soil treatment; L: redroot pigweed
Method in brief: as §3

fig-leafed goosefoot [16] = experiment: Test Example 3: weedkilling efficacy through soil treatment; M: fig-leafed goosefoot
Method in brief: as §3

chickweed [17] = experiment: Test Example 3: weedkilling efficacy through soil treatment; N: chickweed
Method in brief: as §3

birds-eye speedwell [18] = experiment: Test Example 3: weedkilling efficacy through soil treatment; p: birds-eye speedwell
Method in brief: as §3

directly sown rice [19] = experiment: Test Example 3: soil treatment, effect on crop; b: directly sown rice
Method in brief: as §3

corn [20] = experiment: Test Example 3: soil treatment, effect on crop; c: corn
Method in brief: as §3

soybean [21] = experiment: Test Example 3: soil treatment, effect on crop; d: soybean
Method in brief: as §3

wheat [22] = experiment: Test Example 3: soil treatment, effect on crop; e: wheat
Method in brief: as §3

beet [23] = experiment: Test Example 3: soil treatment, effect on crop; f: beet
Method in brief: as §3

rapeseed [24] = experiment: Test Example 3: soil treatment, effect on crop; g: rapeseed
Method in brief: as §3

crabgrass [25] = experiment: Test Example 4: weedkilling efficacy by foliar treatment; D: crabgrass
Method in brief: (§4)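 Seeds are spot-sown into sterilized diluvial soil and covered with about 1.5 cm of soil. After 14 days' greenhouse growth at 25 to 30° C, plants are sprayed on stems and leaves with diluted emulsion at the stated g/ha rate, then scored at 3 weeks.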

green foxtail [26] = experiment: Test Example 4: weedkilling efficacy by foliar treatment; E: green foxtail
Method in brief: as §4

barnyard grass [27] = experiment: Test Example 4: weedkilling efficacy by foliar treatment; F: barnyard grass
Method in brief: as §4

wild oat [28] = experiment: Test Example 4: weedkilling efficacy by foliar treatment; G: wild oat
Method in brief: as §4

black-grass [29] = experiment: Test Example 4: weedkilling efficacy by foliar treatment; H: black-grass
Method in brief: as §4

Italian ryegrass [30] = experiment: Test Example 4: weedkilling efficacy by foliar treatment; I: Italian ryegrass
Method in brief: as §4

common wind-grass [31] = experiment: Test Example 4: weedkilling efficacy by foliar treatment; J: common wind-grass
Method in brief: as §4

Indian mallow [32] = experiment: Test Example 4: weedkilling efficacy by foliar treatment; K: Indian mallow
Method in brief: as §4

redroot pigweed [33] = experiment: Test Example 4: weedkilling efficacy by foliar treatment; L: redroot pigweed
Method in brief: as §4

fig-leafed goosefoot [34] = experiment: Test Example 4: weedkilling efficacy by foliar treatment; M: fig-leafed goosefoot
Method in brief: as §4

chickweed [35] = experiment: Test Example 4: weedkilling efficacy by foliar treatment; N: chickweed
Method in brief: as §4

catchweed = experiment: Test Example 4: weedkilling efficacy by foliar treatment; O: catchweed
Method in brief: as §4

birds-eye speedwell [36] = experiment: Test Example 4: weedkilling efficacy by foliar treatment; p: birds-eye speedwell
Method in brief: as §4

directly sown rice [37] = experiment: Test Example 4: foliar treatment, effect on crop; b: directly sown rice
Method in brief: as §4

corn [38] = experiment: Test Example 4: foliar treatment, effect on crop; c: corn
Method in brief: as §4

soybean [39] = experiment: Test Example 4: foliar treatment, effect on crop; d: soybean
Method in brief: as §4

wheat [40] = experiment: Test Example 4: foliar treatment, effect on crop; e: wheat
Method in brief: as §4

beet [41] = experiment: Test Example 4: foliar treatment, effect on crop; f: beet
Method in brief: as §4

rapeseed [42] = experiment: Test Example 4: foliar treatment, effect on crop; g: rapeseed
Method in brief: as §4

Structure (SMILES): CC1=C(c2ccccc2)C(=O)N(C(C)(C)C(=O)Nc2cc(C(F)(F)F)cc(F)n2)CO1 [B-2-40]
- A (barnyard grass) weedkilling efficacy grade (barnyard grass [1]): 5 (weed kill ratio 90% or more, (practically complete withering))
- B (bulrush) weedkilling efficacy grade (bulrush [2]): 5 (weed kill ratio 90% or more, (practically complete withering))
- C (oval-leafed pondweed) weedkilling efficacy grade (oval-leafed pondweed [3]): 5 (weed kill ratio 90% or more, (practically complete withering))
- a (transplanted rice) effect on crop grade (transplanted rice): 3 (weed kill ratio 40% or more, less than 70%)
- A (barnyard grass) weedkilling efficacy grade (barnyard grass [4]): 5 (weed kill ratio 90% or more, (practically complete withering))
- B (bulrush) weedkilling efficacy grade (bulrush [5]): 5 (weed kill ratio 90% or more, (practically complete withering))
- C (oval-leafed pondweed) weedkilling efficacy grade (oval-leafed pondweed [6]): 5 (weed kill ratio 90% or more, (practically complete withering))
- D (crabgrass) weedkilling efficacy grade (crabgrass [7]): 5 (weed kill ratio 90% or more, (practically complete withering))
- E (green foxtail) weedkilling efficacy grade (green foxtail [8]): 5 (weed kill ratio 90% or more, (practically complete withering))
- F (barnyard grass) weedkilling efficacy grade (barnyard grass [9]): 5 (weed kill ratio 90% or more, (practically complete withering))
- G (wild oat) weedkilling efficacy grade (wild oat [10]): 5 (weed kill ratio 90% or more, (practically complete withering))
- H (black-grass) weedkilling efficacy grade (black-grass [11]): 5 (weed kill ratio 90% or more, (practically complete withering))
- I (Italian ryegrass) weedkilling efficacy grade (Italian ryegrass [12]): 5 (weed kill ratio 90% or more, (practically complete withering))
- J (common wind-grass) weedkilling efficacy grade (common wind-grass [13]): 5 (weed kill ratio 90% or more, (practically complete withering))
- K (Indian mallow) weedkilling efficacy grade (Indian mallow [14]): 5 (weed kill ratio 90% or more, (practically complete withering))
- L (redroot pigweed) weedkilling efficacy grade (redroot pigweed [15]): 4 (weed kill ratio 70% or more, less than 90%)
- M (fig-leafed goosefoot) weedkilling efficacy grade (fig-leafed goosefoot [16]): 5 (weed kill ratio 90% or more, (practically complete withering))
- N (chickweed) weedkilling efficacy grade (chickweed [17]): 4 (weed kill ratio 70% or more, less than 90%)
- P (birds-eye speedwell) weedkilling efficacy grade (birds-eye speedwell [18]): 5 (weed kill ratio 90% or more, (practically complete withering))
- b (directly sown rice) effect on crop grade (directly sown rice [19]): 5 (weed kill ratio 90% or more, (practically complete withering))
- c (corn) effect on crop grade (corn [20]): 0 (weed kill ratio 5% or less (practically no effect))
- d (soybean) effect on crop grade (soybean [21]): 2 (weed kill ratio 20% or more, less than 40%)
- e (wheat) effect on crop grade (wheat [22]): 0 (weed kill ratio 5% or less (practically no effect))
- f (beet) effect on crop grade (beet [23]): 3 (weed kill ratio 40% or more, less than 70%)
- g (rapeseed) effect on crop grade (rapeseed [24]): 4 (weed kill ratio 70% or more, less than 90%)
- D (crabgrass) weedkilling efficacy grade (crabgrass [25]): 5 (weed kill ratio 90% or more, (practically complete withering))
- E (green foxtail) weedkilling efficacy grade (green foxtail [26]): 5 (weed kill ratio 90% or more, (practically complete withering))
- F (barnyard grass) weedkilling efficacy grade (barnyard grass [27]): 5 (weed kill ratio 90% or more, (practically complete withering))
- G (wild oat) weedkilling efficacy grade (wild oat [28]): 5 (weed kill ratio 90% or more, (practically complete withering))
- H (black-grass) weedkilling efficacy grade (black-grass [29]): 5 (weed kill ratio 90% or more, (practically complete withering))
- I (Italian ryegrass) weedkilling efficacy grade (Italian ryegrass [30]): 5 (weed kill ratio 90% or more, (practically complete withering))
- J (common wind-grass) weedkilling efficacy grade (common wind-grass [31]): 5 (weed kill ratio 90% or more, (practically complete withering))
- K (Indian mallow) weedkilling efficacy grade (Indian mallow [32]): 5 (weed kill ratio 90% or more, (practically complete withering))
- L (redroot pigweed) weedkilling efficacy grade (redroot pigweed [33]): 5 (weed kill ratio 90% or more, (practically complete withering))
- M (fig-leafed goosefoot) weedkilling efficacy grade (fig-leafed goosefoot [34]): 5 (weed kill ratio 90% or more, (practically complete withering))
- N (chickweed) weedkilling efficacy grade (chickweed [35]): 4 (weed kill ratio 70% or more, less than 90%)
- O (catchweed) weedkilling efficacy grade (catchweed): 5 (weed kill ratio 90% or more, (practically complete withering))
- P (birds-eye speedwell) weedkilling efficacy grade (birds-eye speedwell [36]): 4 (weed kill ratio 70% or more, less than 90%)
- b (directly sown rice) effect on crop grade (directly sown rice [37]): 5 (weed kill ratio 90% or more, (practically complete withering))
- c (corn) effect on crop grade (corn [38]): 5 (weed kill ratio 90% or more, (practically complete withering))
- d (soybean) effect on crop grade (soybean [39]): 5 (weed kill ratio 90% or more, (practically complete withering))
- e (wheat) effect on crop grade (wheat [40]): 1 (weed kill ratio 5% or more, less than 20%)
- f (beet) effect on crop grade (beet [41]): 4 (weed kill ratio 70% or more, less than 90%)
- g (rapeseed) effect on crop grade (rapeseed [42]): 4 (weed kill ratio 70% or more, less than 90%)
